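Tested at 5 concentrations; 48 h exposure; 96-well plates; endpoints linearly interpolated, else capped at highest concentration. GI50: concentration for 50% inhibition of growth. TGI is the concentration that stops growth completely.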
Key:
Test in all cases: NCI-60 cell line screen, 48 h
[1] = test system: 786-0 renal
[2] = test system: A498 renal
[3] = test system: A549 NSCLC
[4] = test system: ACHN renal
[5] = test system: BT-549 breast
[6] = test system: CAKI-1 renal
[7] = test system: CCRF-CEM leukemia
[8] = test system: COLO 205 colon
[9] = test system: DU-145 prostate
[10] = test system: EKVX NSCLC
[11] = test system: HCC-2998 colon
[12] = test system: HCT-116 colon
[13] = test system: HCT-15 colon
[14] = test system: HL-60(TB) leukemia
[15] = test system: HOP-62 NSCLC
[16] = test system: HOP-92 NSCLC
[17] = test system: HS 578T breast
[18] = test system: HT29 colon
[19] = test system: IGROV1 ovarian
[20] = test system: K-562 leukemia
[21] = test system: KM12 colon
[22] = test system: LOX IMVI melanoma
[23] = test system: M14 melanoma
[24] = test system: MALME-3M melanoma
[25] = test system: MCF7 breast
[26] = test system: MDA-MB-231 breast
[27] = test system: MDA-MB-435
[28] = test system: MOLT-4 leukemia
[29] = test system: NCI-H226 lung
[30] = test system: NCI-H23 lung
[31] = test system: NCI-H460 lung
[32] = test system: NCI-H522 lung
[33] = test system: NCI/ADR-RES ovarian
[34] = test system: OVCAR-3 ovarian
[35] = test system: OVCAR-4 ovarian
[36] = test system: OVCAR-5 ovarian
[37] = test system: OVCAR-8 ovarian
[38] = test system: PC-3 prostate
[39] = test system: RPMI-8226 leukemia
[40] = test system: RXF 393 renal
[41] = test system: SF-268 CNS
[42] = test system: SF-295 CNS
[43] = test system: SF-539 CNS
[44] = test system: SK-MEL-2 melanoma
[45] = test system: SK-MEL-28 melanoma
[46] = test system: SK-MEL-5 melanoma
[47] = test system: SK-OV-3 ovarian
[48] = test system: SN12C renal
[49] = test system: SNB-19 CNS
[50] = test system: SNB-75 CNS
[51] = test system: SR leukemia
[52] = test system: SW-620 colon
[53] = test system: T-47D breast
[54] = test system: TK-10 renal
[55] = test system: U251 CNS
[56] = test system: UACC-257 melanoma
[57] = test system: UACC-62 melanoma
[58] = test system: UO-31 renal

SMILES: N#CC(=C1C=CC(=NO)C=C1)c1ccccc1
- GI50 [1]: 1.69 µM
- TGI [1]: 9.91 µM
- GI50 [2]: 5.33 µM
- TGI [2]: 22.8 µM
- GI50 [3]: 4.58 µM
- TGI [3]: > 37.2 µM
- GI50 [4]: 1.14 µM
- TGI [4]: 10.1 µM
- GI50 [5]: 2.42 µM
- TGI [5]: 11.6 µM
- GI50 [6]: 1.23 µM
- TGI [6]: 11.5 µM
- GI50 [7]: 0.476 µM
- TGI [7]: 2.36 µM
- GI50 [8]: 6.33 µM
- TGI [8]: 18.5 µM
- GI50 [9]: 1.58 µM
- TGI [9]: 4.05 µM
- GI50 [10]: 5.31 µM
- TGI [10]: 21.4 µM
- GI50 [11]: 4.61 µM
- TGI [11]: 15 µM
- GI50 [12]: 0.272 µM
- TGI [12]: 0.794 µM
- GI50 [13]: 2.22 µM
- TGI [13]: 12.3 µM
- GI50 [14]: 1.19 µM
- TGI [14]: 4.1 µM
- GI50 [15]: 6.31 µM
- TGI [15]: 25.2 µM
- GI50 [16]: 2.49 µM
- TGI [16]: 9.46 µM
- GI50 [17]: 2.39 µM
- TGI [17]: 6.68 µM
- GI50 [18]: 2.16 µM
- TGI [18]: 6.69 µM
- GI50 [19]: 1.3 µM
- TGI [19]: 4.53 µM
- GI50 [20]: 1.85 µM
- TGI [20]: 13.2 µM
- GI50 [21]: 0.355 µM
- TGI [21]: 1.2 µM
- GI50 [22]: 1.17 µM
- TGI [22]: 6.25 µM
- GI50 [23]: 1.74 µM
- TGI [23]: 4.36 µM
- GI50 [24]: 4.92 µM
- TGI [24]: 19.8 µM
- GI50 [25]: 0.319 µM
- TGI [25]: 11.6 µM
- GI50 [26]: 1.73 µM
- TGI [26]: 5.17 µM
- GI50 [27]: 0.331 µM
- TGI [27]: 1.65 µM
- GI50 [28]: 3.04 µM
- TGI [28]: 18.4 µM
- GI50 [29]: 2.35 µM
- TGI [29]: 7.47 µM
- GI50 [30]: 9.92 µM
- TGI [30]: 34.1 µM
- GI50 [31]: 1.3 µM
- TGI [31]: 6.11 µM
- GI50 [32]: 1.02 µM
- TGI [32]: 4.68 µM
- GI50 [33]: 1.49 µM
- TGI [33]: 11.8 µM
- GI50 [34]: 0.458 µM
- TGI [34]: 4.38 µM
- GI50 [35]: 3.02 µM
- TGI [35]: 15.4 µM
- GI50 [36]: 2.53 µM
- TGI [36]: 5.03 µM
- GI50 [37]: 2.71 µM
- TGI [37]: 12.3 µM
- GI50 [38]: 0.671 µM
- TGI [38]: 17 µM
- GI50 [39]: 0.348 µM
- TGI [39]: 1.83 µM
- GI50 [40]: 1.14 µM
- TGI [40]: 8.63 µM
- GI50 [41]: 1.37 µM
- TGI [41]: 6.06 µM
- GI50 [42]: 2.91 µM
- TGI [42]: 8.16 µM
- GI50 [43]: 0.92 µM
- TGI [43]: 3.37 µM
- GI50 [44]: 2.14 µM
- TGI [44]: 6.77 µM
- GI50 [45]: 8.71 µM
- TGI [45]: 27.5 µM
- GI50 [46]: 2.01 µM
- TGI [46]: 8.3 µM
- GI50 [47]: 5.75 µM
- TGI [47]: > 65 µM
- GI50 [48]: 2.39 µM
- TGI [48]: 8.41 µM
- GI50 [49]: 3.73 µM
- TGI [49]: 9.35 µM
- GI50 [50]: 2.14 µM
- TGI [50]: 8.99 µM
- GI50 [51]: 0.349 µM
- TGI [51]: 3.73 µM
- GI50 [52]: 0.473 µM
- TGI [52]: 2.36 µM
- GI50 [53]: 0.47 µM
- TGI [53]: 2.99 µM
- GI50 [54]: 4.47 µM
- TGI [54]: 13.3 µM
- GI50 [55]: 1.45 µM
- TGI [55]: 8.72 µM
- GI50 [56]: 2.12 µM
- TGI [56]: 17.8 µM
- GI50 [57]: 1.49 µM
- TGI [57]: 7.41 µM
- GI50 [58]: 3.45 µM
- TGI [58]: 19 µM
